Test results: paper PMC9919730, “A Versatile Continuous Fluorometric Enzymatic Assay for Targeting Nicotinate Phosphoribosyltransferase” (Molecules, 2023)
Entries after “also recorded” stand apart in the source; their conditions may differ. Where two headings read alike, the source gives them in different places. One block for each molecule: values may come before it.

Experiments:
OVCAR-5 cells [1] = assay: Cell viability, sulforhodamine B assay, with or without FK866; assay type: cell-based; conditions: for Sensitization of cells to FK866 (cell viability in combination): 200 µM compound with FK866 0 to 100 nM; for Combination index (CI): CompuSyn; for viability at 200 µM: Homo sapiens, OVCAR-5, 200 µM compound with 3 nM FK866, 72 h
Description: The OVCAR-5 cell line was obtained from the NCI-60 panel. Cells were seeded in 96-well plates (3 × 10^3 cells/well) and were treated with the selected compounds at a 200 µM final concentration or with 0.2% DMSO the day after, in combination with increasing concentrations of FK866, ranging from 0 to 100 nM. Treated cells were incubated at 37 °C and 5% CO2 for 72 h. At the end of the treatment, trichloroacetic acid (TCA) (10% final concentration) was added to each well. After 20 min at 4 °C, the wells were washed 4 times with tap water to remove TCA, and they were let to dry. Cell viability was evaluated with the sulforhodamine B assay, as previously described.

human recombinant NAPRT [2] = biological target: T1, human recombinant NAPRT (Homo sapiens, UniProt Q6XQN6); assay: Continuous coupled fluorometric NADH assay of NAPRT activity; conditions: for Inhibitory activity against NAPRT (in words): screening at 0.5 mM
T1 sequence (Q6XQN6 1-538): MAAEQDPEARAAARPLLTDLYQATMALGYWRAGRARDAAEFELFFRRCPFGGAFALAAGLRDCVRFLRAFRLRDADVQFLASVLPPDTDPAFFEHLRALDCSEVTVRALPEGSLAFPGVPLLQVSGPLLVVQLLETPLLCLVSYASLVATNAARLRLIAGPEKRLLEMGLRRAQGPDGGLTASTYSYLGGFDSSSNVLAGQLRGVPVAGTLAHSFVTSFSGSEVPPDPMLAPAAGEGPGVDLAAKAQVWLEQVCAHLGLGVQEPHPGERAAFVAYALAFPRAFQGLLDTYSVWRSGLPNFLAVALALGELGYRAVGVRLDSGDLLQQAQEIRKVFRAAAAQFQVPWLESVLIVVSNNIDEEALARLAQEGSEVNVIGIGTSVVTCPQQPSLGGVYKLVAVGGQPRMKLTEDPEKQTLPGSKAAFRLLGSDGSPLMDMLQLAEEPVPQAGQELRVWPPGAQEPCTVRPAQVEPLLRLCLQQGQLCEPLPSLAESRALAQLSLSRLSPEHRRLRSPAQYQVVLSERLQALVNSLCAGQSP
Description: NADH fluorescence was monitored continuously at 37 °C for 30 min, using a 96-well plate in a Sinergy HT microplate reader (Bio-Tek, Winooski, VT, USA) set at excitation and emission wavelengths of 340 nm and 460 nm, respectively. The slope of the linear fit of fluorescence versus time was used to calculate the NAPRT activity by referring to an NADH standard curve, obtained by plotting the fluorescence of a known amount of NADH versus the nucleotide concentrations. […] These mixtures were optimized to make NadD the rate-limiting enzyme of the ancillary system, i.e., concentrations of the enzyme NadD and the NAMN substrate were chosen to guarantee a linear time course of the fluorescence increase up to 30 min.
The analyzed compounds were dissolved in 100% v/v DMSO. Few compounds were dissolved in water. The compounds were tested at a 0.5 mM concentration. […] The screening was started by using the NADH assay. […] The fluorescence increase was monitored continuously, which allowed us to easily estimate the quality of data and to identify potential artifacts (e.g., arising from compounds precipitation). […] One inhibitor control for each tested compound (compound and no NAPRT), as well as four positive controls (NAPRT and no compound) and four negative controls (no NAPRT and no compound) were included in every reaction plate. The percentage inhibition was calculated relative to the controls as follows: % inhibition=(Si−Ci)/(µp−µn)×100 where Si represents the signal in the presence of the compound; Ci is the signal of the inhibitor control; and µp and µn are the mean values of the signals of the positive and negative controls, respectively.
The IC50 value was determined by plotting the rates versus inhibitor concentration and fitting to the equation: Vi = V0/(1 + [I]/IC50) using GraphPad Prism 7. V0 and Vi represent initial rates in the absence and presence of the inhibitor at concentration [I], respectively.
Ki values were calculated from the straight line deriving from the replotting of the slopes of the reciprocal plot against the concentrations of the inhibitor (secondary plot). In particular, the straight line intersects the x-axis at [I] = −Ki [28].

OVCAR-5 cells [3] = assay: Intracellular NAD+ levels measurement (cycling assay); assay type: cell-based; conditions: for Effect on NAD+ levels combined with FK866: 200 µM compound with 3 nM FK866, 24 h; for NAD levels: 200 µM compound with 3 nM FK866, after 72 h of incubation as printed
Description: The compounds were prepared as described above. OVCAR-5 cells were seeded in a 12-well plate (1 × 10^5/well). The day after, cells were treated with combinations of each selected compound (200 µM, final concentration) and FK866 (3 nM, final concentration) and were incubated at 37 °C and 5% CO2. […] Cell lysates were subsequently collected, transferred to new tubes, and diluted in 100 mM Na2HPO4 at pH 8. To determine the amount of NAD^+, we utilized a sensitive cyclic assay that takes advantage of the enzymatic activity of ADH [23]. Briefly, 0.1 mL of the cycling reagent (2% (v/v) ethanol, 100 μg/mL ADH, 20 μM resazurin, 5 μg/mL diaphorase, 10 μM FMN, 10 mM nicotinamide, and 100 mM sodium phosphate, pH 8.0) were added to each well, containing 0.1 mL of each diluted sample. The increase in resorufin fluorescence (544 nm excitation, 590 nm emission) was measured every min over a 2 h period using a fluorescence plate reader (Fluostar Optima, BMG Labtechnologies GmbH, Offenburg, Germany). A NAD^+ standard curve was always run in parallel in each assay.

human recombinant NAPRT [4] = biological target: T1, human recombinant NAPRT; assay: Resazurin/diaphorase-coupled assay of NAPRT activity; assay type: biochemical; set-up: inferred from purification on a HisTrap IMAC column with imidazole elution; made in house; host or cells: E. coli BL21 (D3); conditions: 0.5 mM compound; 0.1 mM NA, 0.4 mM PRPP; resazurin/diaphorase-coupled assay (optical interference at NADH wavelength)
Description: The NAPRT concentration was 0.004 × 10^−3 U/mL (2 nM). […] The increase in fluorescence due to resorufin formation in the assay was monitored continuously for 30 min, at 590 nm, after excitation at 530 nm, using a 96-well plate in the Sinergy HT microplate reader at 37 °C. […] To determine the NAPRT activity, the first derivative of the recorded fluorescence curve was calculated, and the slope of the corresponding curve was referred to a standard curve obtained by plotting the fluorescence rate recorded in assay mixtures containing known amounts of NAD^+ in the absence of NAPRT, NadD, and NadE versus the dinucleotide concentrations.
The analyzed compounds were dissolved in 100% v/v DMSO. Few compounds were dissolved in water. The compounds were tested at a 0.5 mM concentration. […] The screening was started by using the NADH assay. […] One inhibitor control for each tested compound (compound and no NAPRT), as well as four positive controls (NAPRT and no compound) and four negative controls (no NAPRT and no compound) were included in every reaction plate. The percentage inhibition was calculated relative to the controls as follows: % inhibition=(Si−Ci)/(µp−µn)×100 where Si represents the signal in the presence of the compound; Ci is the signal of the inhibitor control; and µp and µn are the mean values of the signals of the positive and negative controls, respectively.

human recombinant NAPRT [5] = biological target: T1, human recombinant NAPRT; assay: HPLC assay of NAPRT activity; assay type: biochemical; set-up: inferred from purification on a HisTrap IMAC column with imidazole elution; made in house; host or cells: E. coli BL21 (D3); conditions: 0.5 mM compound; 0.1 mM NA, 0.4 mM PRPP; HPLC assay (interference with both fluorometric assays)
Description: The amount of enzyme was optimized to provide substrate consumption below 20% of the initial concentration after 10 min of incubation at 37 °C. In addition, withdrawals from the reaction mixture at 5 and 10 min were always performed to ensure a linear time frame. The reaction was stopped by acidification with 0.6 M HClO4. After 10 min on ice, samples were clarified by centrifugation for 2 min at 13,000× g. The supernatants were neutralized with 0.8 M K2CO3, frozen at −20 °C for about 20 min, centrifuged at 13,000× g for 5 min, and injected onto a Supelcosil LC-18-S column (5 µm; 250 × 4.6 mm) thermostatted at 8 °C. […] The elution was monitored at 260 nm (Shimadzu SPD-M20A), and the formed NAMN was quantified by referring to an appropriate standard.
The analyzed compounds were dissolved in 100% v/v DMSO. […] The fluorescence increase was monitored continuously, which allowed us to easily estimate the quality of data and to identify potential artifacts (e.g., arising from compounds precipitation). […] The percentage inhibition was calculated relative to the controls as follows: % inhibition=(Si−Ci)/(µp−µn)×100 where Si represents the signal in the presence of the compound; Ci is the signal of the inhibitor control; and µp and µn are the mean values of the signals of the positive and negative controls, respectively.

[6] = substrate: O=C(O)c1cccnc1; assay: purified protein, by the assay type; conditions: other: kinetics in the absence of the inhibitor; 0.4 mM PRPP; pH 7.5; 37.0 °C
[7] = 0.5 mM compound, 0.1 mM NA, 0.4 mM PRPP, NADH assay
[8] = towards NA, NA 10 to 50 µM at 0.4 mM PRPP, NADH assay
[9] = FK866 dose 3 nM with 200 µM compound
[10] = FK866 dose 10 nM with 200 µM compound
[11] = FK866 dose 30 nM with 200 µM compound
[12] = FK866 dose 100 nM with 200 µM compound

Molecule: O=C(O)c1cccnc1O [Compound 1, 2-hydroxynicotinic acid]
- Effect on NAD+ levels combined with FK866 (OVCAR-5 cells [3]): most effective
- NAD levels (OVCAR-5 cells [3]): about 15%
- Sensitization of cells to FK866 (cell viability in combination) (OVCAR-5 cells [1]; 72 h): reduced cell viability when combined with FK866
- Sensitization of cells to FK866 (cell viability in combination) (OVCAR-5 cells [1]; 72 h, listed as 2-hydroxynicotinic acid): sensitize OVCAR-5 cells to the NAMPT inhibitor FK866; also recorded: effective in sensitizing tumor cells to NAMPT inhibitors
- Combination index (CI) (OVCAR-5 cells [1]; [9]): 0.5117
- Combination index (CI) (OVCAR-5 cells [1]; [10]): 0.3255
- Combination index (CI) (OVCAR-5 cells [1]; [11]): 0.339
- Combination index (CI) (OVCAR-5 cells [1]; [12]): 0.3592
- viability at 200 µM (OVCAR-5 cells [1]): ~75%

Molecule: Cc1cnc(C(=O)O)c[n+]1[O-] [Compound 14, Acipimox]
- inhibition at 500 µM (human recombinant NAPRT [2]; [7]): 0%

Molecule: O=C(O)c1ccccc1 [Compound 19, benzoic acid]
- inhibition at 500 µM (human recombinant NAPRT [2]): 8%

Molecule: O=C(O)c1cccc(N2CCOCC2)c1 [Compound 24, 3-morpholinobenzoic acid]
- inhibition at 500 µM (human recombinant NAPRT [4]): 0%

Molecule: O=C(O)Cc1cnccn1 [Compound 13, 2-pyrazine acetic acid]
- inhibition at 500 µM (human recombinant NAPRT [2]; [7]): 0%

Molecule: Oc1ncccn1 [Compound 32, 2-hydroxypyrimidine]
- inhibition at 500 µM (human recombinant NAPRT [2]; [7]): 0%
- Inhibitory activity against NAPRT (in words) (human recombinant NAPRT [2]): very poor inhibitors

Molecule: NC1CCC(C(=O)O)CC1 (stereo not drawn) [Compound 35, 4-aminocyclohexane carboxylic acid]
- inhibition at 500 µM (human recombinant NAPRT [2]; [7]): 0%
- Inhibitory activity against NAPRT (in words) (human recombinant NAPRT [2]): inactive

Molecule: Nc1ccccc1C(=O)O [Compound 20, anthranilic acid]
- inhibition at 500 µM (human recombinant NAPRT [2]): 5%

Molecule: O=C(O)c1cnccn1 [Compound 9, pyrazine-2-carboxylic acid]
- Effect on NAD+ levels combined with FK866 (OVCAR-5 cells [3]): most effective
- NAD levels (OVCAR-5 cells [3]): ~30%
- Sensitization of cells to FK866 (cell viability in combination) (OVCAR-5 cells [1]; 72 h): reduced cell viability when combined with FK866
- Sensitization of cells to FK866 (cell viability in combination) (OVCAR-5 cells [1]; 72 h, listed as pyrazine-2-carboxylic acid): sensitize OVCAR-5 cells to the NAMPT inhibitor FK866
- Combination index (CI) (OVCAR-5 cells [1]; [9]): 0.198
- Combination index (CI) (OVCAR-5 cells [1]; [10]): 0.0673
- Combination index (CI) (OVCAR-5 cells [1]; [11]): 0.03276
- Combination index (CI) (OVCAR-5 cells [1]; [12]): 0.01211
- viability at 200 µM (OVCAR-5 cells [1]): ~80%

Molecule: O=C(O)c1ccccc1N=Nc1ccc(O)cc1 [Compound 22, 2-(4-hydroxyphenylazo) benzoic acid]
- inhibition at 500 µM (human recombinant NAPRT [5]): 5%

Molecule: O=C(O)c1ccc(Cl)nc1 [Compound 4, 6-chloronicotinic acid]
- IC50 (human recombinant NAPRT [2]): 1260 ± 115 µM
- Inhibition Mechanism (human recombinant NAPRT [2]): 845 ± 69 non-competitive
- Ki (human recombinant NAPRT [2]): 845 ± 69 µM
- inhibition at 500 µM (human recombinant NAPRT [2]): 44%

Molecule: NC(=O)c1cnccn1 [Compound 12, pyrazinamide]
- inhibition at 500 µM (human recombinant NAPRT [2]; [7]): 0%

Molecule: O=C(O)c1ccncc1 [Compound 27, isonicotinic acid]
- inhibition at 500 µM (human recombinant NAPRT [2]; [7]): 0%

Molecule: O=C(O)c1cncnc1 [Compound 28, 5-pyrimidine carboxylic acid]
- inhibition at 500 µM (human recombinant NAPRT [2]; [7]): ≤ 20%

Molecule: O=C(O)c1ccc(O)nc1 [Compound 8, 6-hydroxynicotinic acid]
- inhibition at 500 µM (human recombinant NAPRT [2]): 0%

Molecule: CC(=O)Nc1ccccc1 [Compound 37, acetanilide]
- inhibition at 500 µM (human recombinant NAPRT [2]; [7]): 0%
- Inhibitory activity against NAPRT (in words) (human recombinant NAPRT [2]): inactive

Molecule: c1cnc(N2CCNCC2)nc1 [Compound 33, 2-(1-piperazinyl)pyrimidine]
- inhibition at 500 µM (human recombinant NAPRT [2]; [7]): 0%
- Inhibitory activity against NAPRT (in words) (human recombinant NAPRT [2]): very poor inhibitors

B1: human recombinant NAPRT (Homo sapiens) (protein)
chain: MAAEQDPEARAAARPLLTDLYQATMALGYWRAGRARDAAEFELFFRRCPFGGAFALAAGLRDCVRFLRAFRLRDADVQFLASVLPPDTDPAFFEHLRALDCSEVTVRALPEGSLAFPGVPLLQVSGPLLVVQLLETPLLCLVSYASLVATNAARLRLIAGPEKRLLEMGLRRAQGPDGGLTASTYSYLGGFDSSSNVLAGQLRGVPVAGTLAHSFVTSFSGSEVPPDPMLAPAAGEGPGVDLAAKAQVWLEQVCAHLGLGVQEPHPGERAAFVAYALAFPRAFQGLLDTYSVWRSGLPNFLAVALALGELGYRAVGVRLDSGDLLQQAQEIRKVFRAAAAQFQVPWLESVLIVVSNNIDEEALARLAQEGSEVNVIGIGTSVVTCPQQPSLGGVYKLVAVGGQPRMKLTEDPEKQTLPGSKAAFRLLGSDGSPLMDMLQLAEEPVPQAGQELRVWPPGAQEPCTVRPAQVEPLLRLCLQQGQLCEPLPSLAESRALAQLSLSRLSPEHRRLRSPAQYQVVLSERLQALVNSLCAGQSP
- Km [6]: 15 ± 6 µM

Second part, led by results:

- IC50 (human recombinant NAPRT [2]): 609 ± 69 µM
- Ki (human recombinant NAPRT [2]): 348 ± 36 µM
- inhibition at 500 µM (human recombinant NAPRT [2]; [7]): 38%
- Inhibition Mechanism (human recombinant NAPRT [2]; [8]): mixed
Molecule: Nc1ncccc1C(=O)O [Compound 2, 2-aminonicotinic acid]
- Sensitization of cells to FK866 (cell viability in combination) (OVCAR-5 cells [1]; 72 h): did not significantly sensitize cells to FK866 toxicity

- inhibition at 500 µM (human recombinant NAPRT [2]; [7]): 11%
Molecule: CC(=O)Oc1ccccc1C(=O)O [Compound 18, acetyl salicylic acid]

- inhibition at 500 µM (human recombinant NAPRT [2]; [7]): 6%
Molecule: O=C(O)c1ccccn1 [Compound 25, 2-picolinic acid]

- IC50 (human recombinant NAPRT [2]): 1370 ± 74 µM
- Ki (human recombinant NAPRT [2]): 513 ± 13 µM
- inhibition at 500 µM (human recombinant NAPRT [2]; [7]): 30%
- Inhibition Mechanism (human recombinant NAPRT [2]; [8]): mixed inhibitor
Molecule: O=C(O)c1cccnn1 [Compound 15, 3-pyridazine carboxylic acid]

- inhibition at 500 µM (human recombinant NAPRT [2]; [7]): 9%
Molecule: O=C(O)c1cccnc1C(=O)O [Compound 7, 2,3-pyridine dicarboxylic acid]

- IC50 (human recombinant NAPRT [2]): 351 ± 19 µM
- Ki (human recombinant NAPRT [2]): 169 ± 15 µM
- inhibition at 500 µM (human recombinant NAPRT [2]; [7]): 58%
Molecule: O=C(O)c1ccccc1O [Compound 17, salicylic acid]
- Effect on cell viability in the absence of FK866 (OVCAR-5 cells [1]; 200 µM compound, 72 h, no FK866): toxicity
- Inhibition Mechanism (human recombinant NAPRT [2]; [8]): noncompetitive inhibition; also recorded: non- competitive

- inhibition at 500 µM (human recombinant NAPRT [2]; [7]): ≤ 20%
Molecule: O=C(O)c1ncccn1 [Compound 29, 2-pyrimidine carboxylic acid]

- inhibition at 500 µM (human recombinant NAPRT [5]): 5%
Molecule: Nc1c(O)cccc1C(=O)O [Compound 21, 3-hydroxy anthranilic acid]

- IC50 (human recombinant NAPRT [2]): 351 ± 38 µM
- Ki (human recombinant NAPRT [2]): 149 ± 14 µM
- inhibition at 500 µM (human recombinant NAPRT [2]; [7]): 57%
- Inhibition Mechanism (human recombinant NAPRT [2]; [8]): non-competitive
Molecule: O=C(O)c1cccnc1F [Compound 3, 2-fluoronicotinic acid]
- Sensitization of cells to FK866 (cell viability in combination) (OVCAR-5 cells [1]; 72 h): did not significantly sensitize cells to FK866 toxicity

- inhibition at 500 µM (human recombinant NAPRT [4]): 6%
Molecule: Nc1nccnc1C(=O)O [Compound 10, 3-aminopyrazine-2-carboxylic acid]
